# PubChem BioAssay (NCI)
#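 Dose response: 5 concentrations. Exposure: 48 h. Format: 96-well plates. Endpoint: linear interpolation; highest concentration if not reached. The concentration for full growth arrest is given as TGI.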 Where a SMILES comes first, the peptide text is derived from it. [ ]: non-standard residue; d: D form. The star is where a group is joined. NMeAc5c = CNC1(C(=O)O)CCCC1; Boc = CC(C)(C)OC(=O)*; OBn = c1ccc(CO*)cc1
# Test system: SF-295 CNS
# Assay: NCI anticancer screen, dose series, 48 h
row,Compound,TGI
1,CCOC(=O)c1csc(NC(=O)CN2CCOCC2)n1,> 100 µM
2,O=C1/C(=C/c2ccccc2)N=C2Sc3c(nc[nH]c3=O)N12,> 100 µM
3,C=CC1(C)CCC2C(=CCC3C2(C)CC(O)C(O)C3(C)COC2OC(C(=O)O)C(O)C(O)C2O)C1 (stereo unspecified) (tested in a mixture with another compound),> 100 µM
4,N#Cc1c(N2CCCC2)ncn(-c2ccccc2)c1=O,> 100 µM
5,O=[N+]([O-])c1ccc2c(c1)/C(=N/N=C1c3ccccc3Cc3ccccc31)c1cc([N+](=O)[O-])cc([N+](=O)[O-])c1-2,3.7 µM
6,CN(C(=O)C(Cc1ccccc1)NC(=O)OC(C)(C)C)C1(C(=O)NC(Cc2ccccc2)C(=O)OCc2ccccc2)CCCC1 (stereo not drawn) (Boc-Phe-[NMeAc5c]-Phe-OBn; configuration not given here),> 100 µM
7,Cc1ccc([N+](=O)[O-])cc1NC1=NCCO1,> 100 µM
8,CC(C)=CCc1c2c(c3occ(-c4ccc(O)cc4)c(=O)c3c1O)CC(C(C)(C)O)O2 (stereo unspecified),25 µM
9,CCOC(=O)C(SCCO)C(C(=O)OCC)n1cnc2c(=O)[nH]c(NC(C)=O)nc21 (stereo unspecified),> 100 µM
10,O=[N+]([O-])c1ccc2c(c1)c(OCc1ccccc1)nn2Cc1ccccc1,> 100 µM
11,C#CCNC(CS)C(=O)O (stereo unspecified),> 100 µM
12,Cc1ccc(N=NC(=Nc2ccccc2)c2ccc(N(CCC#N)CCC#N)cc2)cc1,92.4 µM
13,Cc1ccccc1C(=O)N1CCc2c([nH]c3ccccc23)C1,> 100 µM
14,CC[C@@H]1CC[C@@H]2[C@H](CC[C@]3(C)[C@@H](OC(C)=O)CC[C@@H]23)[C@H]1COC(C)=O,65.1 µM
15,NS(=O)(=O)c1ccc2c(c1)OCCOCCOCCOCCO2,> 100 µM
16,CCOC(=O)/C=C/CC(C)(C)CCOC(C)=O,> 10 µM
17,COC(=O)C([C@H](NC1(c2ccccc2)c2ccccc2-c2ccccc21)C(=O)OC)N(NC(=O)OCc1ccccc1)C(=O)OCc1ccccc1 (mixture of isomers),> 100 µM
18,COC(=O)c1cc(=O)nc2sc3cccc(C)c3n12,> 100 µM

# Test system: ACHN renal
# Assay: NCI anticancer screen, dose series, 48 h
row,Compound,TGI
1,NC(N)=N/N=C/c1c(-c2ccc(N)cc2)nc2sccn12,77.9 µM
2,CCCCCCc1cc2cc(-c3csc(CC#N)n3)c(=O)oc2cc1O,> 100 µM
3,C=C1C(=O)O[C@@H]2C(=O)[C@@H](C)CCC/C(C)=C/CC[C@@]3(C)O[C@@H]3C[C@@H]12,> 100 µM
4,COc1cc(Br)cc2cc(-c3cn4ccsc4n3)c(=O)oc12,> 100 µM
5,O=C(NC(=O)c1ccccc1[N+](=O)[O-])Nc1ccc(Oc2ncc(Br)cn2)c(Cl)c1,0.0688 µM
6,ClCCN1CCC2(CC1)SSC1(CCN(CCCl)CC1)S2,> 100 µM
7,O=c1c2cc([N+](=O)[O-])cnc2sn1-c1ccc([N+](=O)[O-])cc1,> 100 µM
8,COC(=O)C1SC(SC)=NC12c1ccccc1Nc1ccccc12 (stereo unspecified),> 100 µM
9,COc1ccc2cc(NC(=O)N/N=C\c3ccc([N+](=O)[O-])cc3)ccc2c1,> 100 µM
10,CCOC(=O)C1(C/C=C/CBr)Cc2ccccc2C1=O (stereo unspecified),7.19 µM
11,CN1CCc2cc(N)cc3c2C1Cc1ccc(O)c(O)c1-3 (stereo unspecified),58.4 µM
12,CCCN(C(=O)c1ccccc1)C(C#N)c1ccc(C(C#N)N(CCC)C(=O)c2ccccc2)cc1 (stereo unspecified),> 100 µM
13,S=C1Nc2ccccc2SC1c1ccccc1 (stereo unspecified),> 100 µM
14,COC(=O)c1ccccc1CC1Cc2ccc3c(c2C1=O)CCCC3 (stereo unspecified),> 100 µM
15,CN1CCN(C2=NCCO2)CC1,> 100 µM
16,c1ccc(N=c2sc3ccccc3nc2Nc2ccccc2)cc1,> 100 µM
17,CCOC(=O)c1csc(NC(=O)CN2CCOCC2)n1,> 100 µM

row,Compound,TGI
1,O=C1/C(=C/c2ccccc2)N=C2Sc3c(nc[nH]c3=O)N12,> 100 µM
2,C=CC1(C)CCC2C(=CCC3C2(C)CC(O)C(O)C3(C)COC2OC(C(=O)O)C(O)C(O)C2O)C1 (stereo unspecified) (tested in a mixture with another compound),> 100 µM
3,N#Cc1c(N2CCCC2)ncn(-c2ccccc2)c1=O,> 100 µM
4,O=[N+]([O-])c1ccc2c(c1)/C(=N/N=C1c3ccccc3Cc3ccccc31)c1cc([N+](=O)[O-])cc([N+](=O)[O-])c1-2,8.79 µM
5,CN(C(=O)C(Cc1ccccc1)NC(=O)OC(C)(C)C)C1(C(=O)NC(Cc2ccccc2)C(=O)OCc2ccccc2)CCCC1 (stereo not drawn) (Boc-Phe-[NMeAc5c]-Phe-OBn; configuration not given here),> 100 µM
6,Cc1ccc([N+](=O)[O-])cc1NC1=NCCO1,> 100 µM
7,CC(C)=CCc1c2c(c3occ(-c4ccc(O)cc4)c(=O)c3c1O)CC(C(C)(C)O)O2 (stereo unspecified),28 µM
8,CCOC(=O)C(SCCO)C(C(=O)OCC)n1cnc2c(=O)[nH]c(NC(C)=O)nc21 (stereo unspecified),> 100 µM
9,O=[N+]([O-])c1ccc2c(c1)c(OCc1ccccc1)nn2Cc1ccccc1,> 100 µM
10,C#CCNC(CS)C(=O)O (stereo unspecified),> 100 µM
11,Cc1ccc(N=NC(=Nc2ccccc2)c2ccc(N(CCC#N)CCC#N)cc2)cc1,> 100 µM
12,Cc1ccccc1C(=O)N1CCc2c([nH]c3ccccc23)C1,> 100 µM
13,CC[C@@H]1CC[C@@H]2[C@H](CC[C@]3(C)[C@@H](OC(C)=O)CC[C@@H]23)[C@H]1COC(C)=O,> 100 µM
14,NS(=O)(=O)c1ccc2c(c1)OCCOCCOCCOCCO2,> 100 µM
15,CCOC(=O)/C=C/CC(C)(C)CCOC(C)=O,> 10 µM
16,COC(=O)C([C@H](NC1(c2ccccc2)c2ccccc2-c2ccccc21)C(=O)OC)N(NC(=O)OCc1ccccc1)C(=O)OCc1ccccc1 (mixture of isomers),> 100 µM
17,COC(=O)c1cc(=O)nc2sc3cccc(C)c3n12,42.8 µM

# Test system: DU-145 prostate
# Assay: NCI anticancer screen, dose series, 48 h
row,Compound,TGI
1,NC(N)=N/N=C/c1c(-c2ccc(N)cc2)nc2sccn12,35.5 µM
2,CCCCCCc1cc2cc(-c3csc(CC#N)n3)c(=O)oc2cc1O,> 100 µM
3,C=C1C(=O)O[C@@H]2C(=O)[C@@H](C)CCC/C(C)=C/CC[C@@]3(C)O[C@@H]3C[C@@H]12,> 100 µM
4,COc1cc(Br)cc2cc(-c3cn4ccsc4n3)c(=O)oc12,> 100 µM
5,O=C(NC(=O)c1ccccc1[N+](=O)[O-])Nc1ccc(Oc2ncc(Br)cn2)c(Cl)c1,0.0902 µM
6,ClCCN1CCC2(CC1)SSC1(CCN(CCCl)CC1)S2,> 100 µM
7,O=c1c2cc([N+](=O)[O-])cnc2sn1-c1ccc([N+](=O)[O-])cc1,> 100 µM
8,COC(=O)C1SC(SC)=NC12c1ccccc1Nc1ccccc12 (stereo unspecified),> 100 µM
9,COc1ccc2cc(NC(=O)N/N=C\c3ccc([N+](=O)[O-])cc3)ccc2c1,> 100 µM
10,CCOC(=O)C1(C/C=C/CBr)Cc2ccccc2C1=O (stereo unspecified),28.3 µM
11,CN1CCc2cc(N)cc3c2C1Cc1ccc(O)c(O)c1-3 (stereo unspecified),> 100 µM
12,CCCN(C(=O)c1ccccc1)C(C#N)c1ccc(C(C#N)N(CCC)C(=O)c2ccccc2)cc1 (stereo unspecified),> 100 µM
13,S=C1Nc2ccccc2SC1c1ccccc1 (stereo unspecified),> 100 µM
14,COC(=O)c1ccccc1CC1Cc2ccc3c(c2C1=O)CCCC3 (stereo unspecified),> 100 µM
15,CN1CCN(C2=NCCO2)CC1,> 100 µM
16,c1ccc(N=c2sc3ccccc3nc2Nc2ccccc2)cc1,> 100 µM
17,CCOC(=O)c1csc(NC(=O)CN2CCOCC2)n1,> 100 µM

row,Compound,TGI
1,O=C1/C(=C/c2ccccc2)N=C2Sc3c(nc[nH]c3=O)N12,> 100 µM
2,C=CC1(C)CCC2C(=CCC3C2(C)CC(O)C(O)C3(C)COC2OC(C(=O)O)C(O)C(O)C2O)C1 (stereo unspecified) (tested in a mixture with another compound),> 100 µM
3,N#Cc1c(N2CCCC2)ncn(-c2ccccc2)c1=O,> 100 µM
4,O=[N+]([O-])c1ccc2c(c1)/C(=N/N=C1c3ccccc3Cc3ccccc31)c1cc([N+](=O)[O-])cc([N+](=O)[O-])c1-2,13.7 µM
5,CN(C(=O)C(Cc1ccccc1)NC(=O)OC(C)(C)C)C1(C(=O)NC(Cc2ccccc2)C(=O)OCc2ccccc2)CCCC1 (stereo not drawn) (Boc-Phe-[NMeAc5c]-Phe-OBn; configuration not given here),> 100 µM
6,Cc1ccc([N+](=O)[O-])cc1NC1=NCCO1,> 100 µM
7,CC(C)=CCc1c2c(c3occ(-c4ccc(O)cc4)c(=O)c3c1O)CC(C(C)(C)O)O2 (stereo unspecified),29.4 µM
8,CCOC(=O)C(SCCO)C(C(=O)OCC)n1cnc2c(=O)[nH]c(NC(C)=O)nc21 (stereo unspecified),> 100 µM
9,O=[N+]([O-])c1ccc2c(c1)c(OCc1ccccc1)nn2Cc1ccccc1,> 100 µM
10,C#CCNC(CS)C(=O)O (stereo unspecified),> 100 µM
11,Cc1ccc(N=NC(=Nc2ccccc2)c2ccc(N(CCC#N)CCC#N)cc2)cc1,> 100 µM
12,Cc1ccccc1C(=O)N1CCc2c([nH]c3ccccc23)C1,84.5 µM
13,CC[C@@H]1CC[C@@H]2[C@H](CC[C@]3(C)[C@@H](OC(C)=O)CC[C@@H]23)[C@H]1COC(C)=O,> 100 µM
14,NS(=O)(=O)c1ccc2c(c1)OCCOCCOCCOCCO2,> 100 µM
15,CCOC(=O)/C=C/CC(C)(C)CCOC(C)=O,> 10 µM
16,COC(=O)C([C@H](NC1(c2ccccc2)c2ccccc2-c2ccccc21)C(=O)OC)N(NC(=O)OCc1ccccc1)C(=O)OCc1ccccc1 (mixture of isomers),> 100 µM
17,COC(=O)c1cc(=O)nc2sc3cccc(C)c3n12,> 100 µM
